Laboratory results published in patent publication US8933099B2, “Monocyclic pyridine derivative” (Eisai R&D Management Co., Ltd., priority 2013, dated 2015).

What was measured:
[1] = system: normal human umbilical vein endothelial cells (HUVEC); assay: HUVEC growth inhibition assay (VEGF-induced); type: cell-based; conditions: Homo sapiens, HUVEC, 72 h, read-out: HUVEC (IC50 (nM)), growth in the presence of VEGF 10 ng/mL, 3 days
Protocol: The absorbance value was measured with ENVISION™ (PerkinElmer Co., Ltd.) at 450 nm. The absorbance values of the wells without adding the test substance but with VEGF addition was defined as 100% and the absorbance values of the wells with neither the test substance nor VEGF addition was defined as 0%.

[2] = system: human stomach cancer cell line SNU-16 (FGFR2 gene amplification); assay: SNU-16 growth inhibition assay; type: cell-based; conditions: Homo sapiens, SNU-16, 72 h, read-out: SNU-16 (IC50 (nM)), cell growth, 3 days, Cell Counting Kit-8
Protocol: In this assay, the growth inhibitory activity of a test substance in a human stomach cancer cell line harboring FGFR2 gene amplification is measured.
Then, 10 μL of Cell Counting Kit-8 (Dojindo Laboratories, CK04) was added to each well, and the resultant was incubated for 1 to 2 hours in a 5% CO2 incubator (37° C.) to cause a color reaction. The absorbance value was measured with ENVISION™ (PerkinElmer Co., Ltd.) at 450 nm.

SMILES | IC50 [1] | IC50 [2]
CCOCCOc1cc2c(ccn2C(=O)NC)cc1Oc1ccnc(NC(=O)c2ccc(C3CCN(CC)CC3)nc2)c1 [Example 28, 6-(2-Ethoxyethoxy)-5-((2-(6-(1-ethylpiperidin-4-yl)nicotinamide)pyridin-4-yl)oxy)-N-methyl-1H-indole-1-carboxamide] | 664 nM | 7.3 nM
CCOCCOc1cc2c(ccn2C(=O)NC)cc1Oc1ccnc(NC(=O)c2ccc(CN3CCC[C@H]3CO)cc2)c1 [Example 29] | 600 nM | 8.8 nM
CCOCCOc1cc2c(ccn2C(=O)NC)cc1Oc1ccnc(NC(=O)c2ccc(CN3CC[C@@H](O)C3)s2)c1 [Example 31] | 186 nM | 4.7 nM
CCN1CCC(c2ccc(C(=O)Nc3cc(Oc4cc5ccn(C(=O)NC)c5cc4OCCCF)ccn3)cc2)CC1 [Example 33, 5-((2-(4-(1-Ethylpiperidin-4-yl)benzamide)pyridin-4-yl)oxy)-6-(3-fluoropropoxy)-N-methyl-1H-indole-1-carboxamide] | 274 nM | 8.1 nM
CNC(=O)n1ccc2cc(Oc3ccnc(NC(=O)c4ccc(CN5CCC[C@@H]5CO)s4)c3)c(OC)cc21 [Example 34] | 195 nM | 14 nM
CNC(=O)n1ccc2cc(Oc3ccnc(NC(=O)c4ccc(CN5CCC[C@H]5CO)s4)c3)c(OC)cc21 [Example 35] | 139 nM | 9.8 nM
CNC(=O)n1ccc2cc(Oc3ccnc(NC(=O)c4ccc(CN5C[C@@H](C)N[C@@H](C)C5)s4)c3)c(OC)cc21 [Example 36] | 136 nM | 11 nM
CCN1CCN(Cc2ccc(C(=O)Nc3cc(Oc4cc5ccn(C(=O)NC)c5cc4OC)ccn3)s2)CC1 [Example 37] | 79.1 nM | 9.4 nM
CNC(=O)n1ccc2cc(Oc3ccnc(NC(=O)c4ccc(CN5CCC(O)CC5)s4)c3)c(OC)cc21 [Example 38] | 137 nM | 8 nM
CNC(=O)n1ccc2cc(Oc3ccnc(NC(=O)c4ccc(C5CCN(CC(C)(C)O)CC5)cc4)c3)c(OC)cc21 [Example 39] | 124 nM | 7.8 nM
CNC(=O)n1ccc2cc(Oc3ccnc(NC(=O)c4ccc(C5CCN(C(C)C)CC5)cc4)c3)c(OC)cc21 [Example 40] | 162 nM | 8.3 nM
CNC(=O)n1ccc2cc(Oc3ccnc(NC(=O)c4ccc(OC5CCN(C[C@@H](C)O)CC5)cc4)c3)c(OC)cc21 [Example 41] | 179 nM | 9.3 nM
CNC(=O)n1ccc2cc(Oc3ccnc(NC(=O)c4ccc(OC5CCN(C[C@H](C)O)CC5)cc4)c3)c(OC)cc21 [Example 42] | 184 nM | 14.1 nM
CCN1CCC(Oc2ccc(C(=O)Nc3cc(Oc4cc5ccn(C(=O)NC)c5cc4OC)ccn3)cc2)CC1 [Example 43] | 166 nM | 11.8 nM
CNC(=O)n1ccc2cc(Oc3ccnc(NC(=O)c4cnn(C5CCN(C[C@@H](C)O)CC5)c4)c3)c(OC)cc21 [Example 44] | 392 nM | 16.3 nM
CNC(=O)n1ccc2cc(Oc3ccnc(NC(=O)c4cnn(C5CCN(C[C@H](C)O)CC5)c4)c3)c(OC)cc21 [Example 45] | 379 nM | 15.5 nM
CNC(=O)n1ccc2cc(Oc3ccnc(NC(=O)c4cnn(C5CCN(C(C)C)CC5)c4)c3)c(OC)cc21 [Example 46] | 402 nM | 17.4 nM
CNC(=O)n1ccc2cc(Oc3ccnc(NC(=O)c4ccc(C5CN(C(C)C)C5)cc4)c3)c(OC)cc21 [Example 47] | 174 nM | 13.1 nM
CNC(=O)n1ccc2cc(Oc3ccnc(NC(=O)c4ccc(C5CN(CC(C)(C)O)C5)cc4)c3)c(OC)cc21 [Example 48] | 77.8 nM | 11.7 nM
CCN1CC(c2ccc(C(=O)Nc3cc(Oc4cc5ccn(C(=O)NC)c5cc4OC)ccn3)cc2)C1 [Example 49] | 163 nM | 9.6 nM
CNC(=O)n1ccc2cc(Oc3ccnc(NC(=O)c4ccc(CN5CCC[C@@H]5CO)cc4)c3)c(OC)cc21 [Example 50] | 394 nM | 16.6 nM
CNC(=O)n1ccc2cc(Oc3ccnc(NC(=O)c4ccc(CN5CCC[C@H]5CO)cc4)c3)c(OC)cc21 [Example 51] | 410 nM | 12.5 nM
CNC(=O)n1ccc2cc(Oc3ccnc(NC(=O)c4ccc(CN5CC[C@H](O)C5)cc4)c3)c(OC)cc21 [Example 52] | 388 nM | 14.4 nM
CNC(=O)n1ccc2cc(Oc3ccnc(NC(=O)c4ccc(CN5CC[C@@H](O)C5)cc4)c3)c(OC)cc21 [Example 53] | 401 nM | 14.5 nM
CNC(=O)n1ccc2cc(Oc3ccnc(NC(=O)c4ccc(C5CCN(C[C@@H](C)O)CC5)cc4)c3)c(OC)cc21 [Example 54] | 86.7 nM | 6.4 nM
CCN1CCN(CCOc2ccc(C(=O)Nc3cc(Oc4cc5ccn(C(=O)NC)c5cc4OC)ccn3)cc2)CC1 [Example 55] | 201 nM | 20.8 nM
CNC(=O)n1ccc2cc(Oc3ccnc(NC(=O)c4ccc(CCN5CCC(O)CC5)cc4)c3)c(OC)cc21 [Example 56] | 96.8 nM | 15 nM

SMILES | IC50 [1] | IC50 [2]
CNC(=O)n1ccc2cc(Oc3ccnc(NC(=O)c4ccc(C5CCN(C)CC5)cc4)c3)c(OC)cc21 [Example 57] | 127 nM | 7.6 nM
CCOc1cc2c(ccn2C(=O)NC)cc1Oc1ccnc(NC(=O)c2ccc(C3CCN(C(C)C)CC3)cc2)c1 [Example 59] | 253 nM | 14.5 nM
CCOc1cc2c(ccn2C(=O)NC)cc1Oc1ccnc(NC(=O)c2ccc(C3CCN(C[C@@H](C)O)CC3)cc2)c1 [Example 60] | 178 nM | 14.7 nM
CCOc1cc2c(ccn2C(=O)NC)cc1Oc1ccnc(NC(=O)c2ccc(C3CCN(C[C@H](C)O)CC3)cc2)c1 [Example 61] | 182 nM | 10.7 nM
CCOc1cc2c(ccn2C(=O)NC)cc1Oc1ccnc(NC(=O)c2ccc(N3CCC(N4CCCC4)CC3)cc2)c1 [Example 62] | 223 nM | 27.4 nM
CCOc1cc2c(ccn2C(=O)NC)cc1Oc1ccnc(NC(=O)c2ccc(C3CCN(CCO)CC3)cc2)c1 [Example 63] | 170 nM | 9.6 nM
CCOc1cc2c(ccn2C(=O)NC)cc1Oc1ccnc(NC(=O)c2ccc(C3CCN(C)CC3)cc2)c1 [Example 64] | 175 nM | 10.3 nM
CCOc1cc2c(ccn2C(=O)NC)cc1Oc1ccnc(NC(=O)c2ccc(CN3CCC(O)CC3)cc2)c1 [Example 65] | 575 nM | 23.6 nM
CNC(=O)n1ccc2cc(Oc3ccnc(NC(=O)c4ccc(C5CCN(C[C@H](C)O)CC5)cc4)c3)c(OC(C)C)cc21 [Example 66] | 203 nM | 16.1 nM
CNC(=O)n1ccc2cc(Oc3ccnc(NC(=O)c4ccc(C5CCN(CCO)CC5)cc4)c3)c(OC(C)C)cc21 [Example 67] | 223 nM | 17.6 nM
CCN1CCC(c2ccc(C(=O)Nc3cc(Oc4cc5ccn(C(=O)NC)c5cc4OC(C)C)ccn3)cc2)CC1 [Example 68] | 256 nM | 20 nM
CNC(=O)n1ccc2cc(Oc3ccnc(NC(=O)c4ccc(CN5CCC(O)CC5)cc4)c3)c(OC(C)C)cc21 [Example 70] | 610 nM | 22.4 nM
CNC(=O)n1ccc2cc(Oc3ccnc(NC(=O)c4ccc(CN5CC[C@H](O)C5)cc4)c3)c(OCCCF)cc21 [Example 71] | 648 nM | 17 nM
CNC(=O)n1ccc2cc(Oc3ccnc(NC(=O)c4ccc(CN5CC[C@@H](O)C5)cc4)c3)c(OCCCF)cc21 [Example 72] | 681 nM | 17.1 nM
CNC(=O)n1ccc2cc(Oc3ccnc(NC(=O)c4ccc(CN5CCC(O)CC5)cc4)c3)c(OCCCF)cc21 [Example 73] | 703 nM | 17.4 nM
CNC(=O)n1ccc2cc(Oc3ccnc(NC(=O)c4ccc(C5CCN(C[C@@H](C)O)CC5)cc4)c3)c(OCCCF)cc21 [Example 74] | 198 nM | 8.4 nM
CNC(=O)n1ccc2cc(Oc3ccnc(NC(=O)c4ccc(C5CCN(C[C@H](C)O)CC5)cc4)c3)c(OCCCF)cc21 [Example 75] | 211 nM | 7.3 nM
CNC(=O)n1ccc2cc(Oc3ccnc(NC(=O)c4ccc(C5CCN(C)CC5)cc4)c3)c(OCCCF)cc21 [Example 76] | 248 nM | 7.5 nM
CNC(=O)n1ccc2cc(Oc3ccnc(NC(=O)c4ccc(C5CCN(C(C)C)CC5)nc4)c3)c(OCCOC)cc21 [Example 77] | 1030 nM | 9.6 nM
CCN1CCC(c2ccc(C(=O)Nc3cc(Oc4cc5ccn(C(=O)NC)c5cc4OCCOC)ccn3)cn2)CC1 [Example 78] | 835 nM | 6.2 nM
CNC(=O)n1ccc2cc(Oc3ccnc(NC(=O)c4ccc(C5CN(C[C@@H](C)O)C5)cc4)c3)c(OCCOC)cc21 [Example 80] | 182 nM | 3.8 nM
CNC(=O)n1ccc2cc(Oc3ccnc(NC(=O)c4ccc(C5CN(C[C@H](C)O)C5)cc4)c3)c(OCCOC)cc21 [Example 81] | 126 nM | 3.8 nM
CNC(=O)n1ccc2cc(Oc3ccnc(NC(=O)c4ccc(CN5CCC[C@@H]5CO)s4)c3)c(OCCOC)cc21 [Example 82] | 264 nM | 6.2 nM
CNC(=O)n1ccc2cc(Oc3ccnc(NC(=O)c4ccc(CN5CC[C@H](O)C5)s4)c3)c(OCCOC)cc21 [Example 84] | 255 nM | 6.2 nM
CNC(=O)n1ccc2cc(Oc3ccnc(NC(=O)c4ccc(CN5CC[C@@H](O)C5)s4)c3)c(OCCOC)cc21 [Example 85] | 235 nM | 6.9 nM
CNC(=O)n1ccc2cc(Oc3ccnc(NC(=O)c4ccc(CN5CCC(O)CC5)s4)c3)c(OCCOC)cc21 [Example 86] | 250 nM | 6.2 nM
